Data as given in PubChem BioAssay (NCI).
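A five-concentration, 48-hour dose response in 96-well plates underlies each endpoint, interpolated linearly between surrounding concentrations. TGI denotes the concentration required for complete inhibition of growth.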

Legend:
Test in all cases: growth of human tumour cells (NCI), 48 h
KM12 colon = system: KM12 colon
CCRF-CEM leukemia = system: CCRF-CEM leukemia
OVCAR-5 ovarian = system: OVCAR-5 ovarian
PC-3 prostate = system: PC-3 prostate
SNB-19 CNS = system: SNB-19 CNS
HCT-15 colon = system: HCT-15 colon
HOP-62 NSCLC = system: HOP-62 NSCLC
SK-MEL-28 melanoma = system: SK-MEL-28 melanoma
MDA-MB-435 = system: MDA-MB-435
BT-549 breast = system: BT-549 breast
EKVX NSCLC = system: EKVX NSCLC
MOLT-4 leukemia = system: MOLT-4 leukemia
A498 renal = system: A498 renal
HCC-2998 colon = system: HCC-2998 colon
OVCAR-8 ovarian = system: OVCAR-8 ovarian
MDA-MB-231 breast = system: MDA-MB-231 breast
IGROV1 ovarian = system: IGROV1 ovarian
HS 578T breast = system: HS 578T breast
U251 CNS = system: U251 CNS
NCI-H226 lung = system: NCI-H226 lung
HCT-116 colon = system: HCT-116 colon
HT29 colon = system: HT29 colon
RPMI-8226 leukemia = system: RPMI-8226 leukemia
SNB-75 CNS = system: SNB-75 CNS
COLO 205 colon = system: COLO 205 colon
SK-MEL-2 melanoma = system: SK-MEL-2 melanoma
TK-10 renal = system: TK-10 renal
NCI-H23 lung = system: NCI-H23 lung
MDA-N = system: MDA-N
SF-268 CNS = system: SF-268 CNS
ACHN renal = system: ACHN renal
786-0 renal = system: 786-0 renal
A549 NSCLC = system: A549 NSCLC
NCI-H460 lung = system: NCI-H460 lung
UACC-257 melanoma = system: UACC-257 melanoma
MALME-3M melanoma = system: MALME-3M melanoma
OVCAR-3 ovarian = system: OVCAR-3 ovarian
SK-MEL-5 melanoma = system: SK-MEL-5 melanoma
SW-620 colon = system: SW-620 colon
UO-31 renal = system: UO-31 renal
M14 melanoma = system: M14 melanoma
SF-295 CNS = system: SF-295 CNS
LOX IMVI melanoma = system: LOX IMVI melanoma
K-562 leukemia = system: K-562 leukemia
HL-60(TB) leukemia = system: HL-60(TB) leukemia
T-47D breast = system: T-47D breast
HOP-92 NSCLC = system: HOP-92 NSCLC
NCI/ADR-RES ovarian = system: NCI/ADR-RES ovarian
OVCAR-4 ovarian = system: OVCAR-4 ovarian
SN12C renal = system: SN12C renal
DU-145 prostate = system: DU-145 prostate
NCI-H522 lung = system: NCI-H522 lung
SF-539 CNS = system: SF-539 CNS
MCF7 breast = system: MCF7 breast
UACC-62 melanoma = system: UACC-62 melanoma
RXF 393 renal = system: RXF 393 renal
CAKI-1 renal = system: CAKI-1 renal
SK-OV-3 ovarian = system: SK-OV-3 ovarian

Measured: TGI

O=C(CSc1nc2ccc([N+](=O)[O-])cc2s1)c1ccc2ccccc2c1
> 100 µM: all assays above
